Values after ≈ are worked out from the molar mass of the structure shown. Where a SMILES comes first, the peptide text is derived from it.
How the values were obtained:
[1] = tested on: E. coli; assay: microbe, parasite or virus in culture; format: cell-based, Escherichia coli
Protocol: (§1) Quantification of the antimicrobial resistance against various AMPs was carried out by measuring the bacterial growth in the presence of peptides at serial dilutes in 96 well plates in a microplate (96-well plate) reader Infinite® M200 PRO Multimode Microplate Reader (Tecan, Maennedorf, Switzerland) according to our recent reports. All bacterial strains were incubated at 32 °C for 13–18 h at 200 rpm. Optical density measurements (λ = 550 nm) were taken automatically at 10 min intervals. Antimicrobial resistance activity was quantified as the minimum inhibitory concentration (MIC)—the lowest concentration of a peptide which prevents growth of bacterial cells.

[2] = tested on: BALB/c 3T3 murine fibroblast cell line; assay: Cytotoxicity, neutral red uptake assay; format: cell-based
From the text: (§2) The BALB/c 3T3 murine fibroblast cell line was obtained from ATCC (American Type Culture Collection, Manassas, VA, USA). Primary human dermal fibroblasts were isolated by enzymatic digestion from skin biopsies in the Laboratory of Bioanalytical and Biodosimetry Methods, University of Latvia, in accordance with the approval of the Committee of Research Ethics of the Institute of Cardiology and Regenerative Medicine, University of Latvia. Cells were propagated in DMEM medium (Sigma, Irvine, UK), supplemented with 1% penicillin (100 U/mL)–streptomycin (100 μg/mL), and 10% calf serum (Sigma, St. Louis, MO, USA) for Balb/c 3T3 cell line and fetal bovine serum (Sigma, St. Louis, MO, USA) for primary dermal fibroblasts. All cultivations were performed in a humidified 5% CO2 atmosphere at 37 °C.
(§3) The cytotoxicity of the peptides was tested in the BALB/c3T3 cell line and primary dermal fibroblasts by the neutral red (NR) uptake assay. Cells were seeded in 96-well plates at a density of 5 × 10^3 cells per well. After 24 h of incubation, peptides in a concentration range of 3.9 to 500 μg/mL were added. Dilutions were made in a cell cultivation medium. Cultivation in the presence of extracts was performed for 48 h. Afterwards, plates were washed with phosphate-buffered saline (PBS) (Sigma, Irvine, UK), and a 25 µg/mL NR solution (Sigma, Irvine, UK) diluted in 5%-fetal-calf-serum-containing-media was added. After 3 h, incubation in a humidified 5% CO2 atmosphere at 37 °C, the plate was washed with PBS, and the NR taken up by viable cells was extracted using desorbing fixative (50% ethanol/1% acetic acid/49% water). Absorbance at 540 nm was measured using a microplate reader Tecan Infinite® 200 PRO (Tecan Group Ltd., Mannedorf, Switzerland). Cytotoxicity was expressed as a concentration-dependent reduction in the uptake of NR, compared to the untreated controls and calculated using the following equation: Cell viability (%)=Abs540nm(treatment)−Abs540nm(background)/Abs540nm(untreated control)−Abs540nm(background)×100%

[3] = tested on: S. aureus; assay: microbe, parasite or virus in culture; format: cell-based, Staphylococcus aureus
Protocol: as §1

[4] = tested on: K. pneumonia; assay: microbe, parasite or virus in culture; format: cell-based, Klebsiella pneumoniae
Protocol: as §1

[5] = tested on: C. acnes; assay: microbe, parasite or virus in culture; format: cell-based, Cutibacterium acnes
Protocol: as §1

[6] = tested on: E. faecium; assay: microbe, parasite or virus in culture; format: cell-based, Enterococcus faecium
Protocol: as §1

[7] = tested on: P. aeruginosa; assay: microbe, parasite or virus in culture; format: cell-based, Pseudomonas aeruginosa
Protocol: as §1

[8] = tested on: primary human dermal fibroblasts; format: cell-based; settings: 48 h
From the text: as §2, §3

[9] = tested on: fresh human blood (red blood cell lysis); assay: Hemolysis assay; format: cell-based; settings: for hemolysis ratio (HR): red cells of human, 1 h
Protocol: A hemolysis test was performed to assess the hemocompatibility of the peptides. Blood from healthy donors was collected in Monovette vacutainers containing Ethylenediamine tetra-acetic acid (EDTA). Blood was diluted with 0.9% sodium chloride solution supplemented with 10 U/mL heparin (4:5 ratio by volume). Peptides were added to 1.5 mL vials containing fresh 0.49 mL PBS and incubated at 37 °C and 5% CO2 for 30 min, and 10 μL of diluted blood was added to each vial and incubated at 37 °C and 5% CO2 for 1 h. PBS was used as a negative control and deionized water was used as a positive control. After incubation tubes were centrifuged at 3000 rpm for 5 min, the supernatants were collected, and the absorbance was measured at a wavelength of 545 nm in a microplate reader Tecan Infinite® 200 PRO (Tecan Group Ltd., Mannedorf, Switzerland).
The hemolytic ratio (HR) was calculated by the following equation: HR (%)=(Abs(sample)−Abs(negative control))/(Abs (positive control−Abs(negative control))×100%

Structure (SMILES) | MIC E. coli [1] [µg/mL] | IC50, viability of Balb/c 3T3 cells ([2]; 48 h) [µg/mL] | decrease of cell viability ([2]; Balb/c 3T3, at 15.63 μg/mL and above) | MIC S. aureus [3] [µg/mL] | MIC K. pneumonia [4] [µg/mL] | MIC C. acnes [5] [µg/mL] | Therapeutic Index C. acnes [5] | MIC E. faecium [6] [µg/mL] | MIC P. aeruginosa [7] [µg/mL] | IC50, viability of human primary dermal fibroblasts [8] [µg/mL] | hemolysis ratio (HR) ([9]; 32 μg/mL) | hemolysis ratio (HR) ([9]; 64 μg/mL) | Therapeutic Index E. coli [1] | concentrations not cytotoxic ([2]; Balb/c 3T3, neutral red uptake, 48 h, tested 3.9–500 μg/mL) [ng/mL] | Therapeutic Index S. aureus [3] | Therapeutic Index K. pneumonia [4] | Therapeutic Index E. faecium [6] | Therapeutic Index P. aeruginosa [7] | hemolytic activity [9] | hemolysis ratio (HR) [9] [%]
CC[C@H](C)[C@H](NC(=O)[C@H](Cc1ccccc1)NC(=O)[C@H](CCCCN)NC(=O)[C@H](CCCCN)NC(=O)[C@H](Cc1ccccc1)NC(=O)[C@H](CCCCN)NC(=O)[C@H](CCCCN)NC(=O)[C@H](C)NC(=O)[C@H](Cc1ccccc1)NC(=O)[C@H](CCCCN)NC(=O)[C@H](CCCCN)NC(=O)[C@@H](NC(=O)[C@@H](N)Cc1ccccc1)[C@@H](C)CC)C(=O)N[C@@H](CCCCN)C(=O)N[C@@H](CCCCN)C(=O)N[C@@H](Cc1ccccc1)C(=O)N[C@@H](C)C(=O)N[C@@H](CCCCN)C(=O)N[C@@H](Cc1ccccc1)C(=O)N[C@@H](C)C(=O)N[C@@H](Cc1ccccc1)C(=O)N[C@@H](C)C(=O)N[C@@H](Cc1ccccc1)C(=O)O [Peptide R1] (H-FIKKFAKKFKKFIKKFAKFAFAF-OH; N-terminus and C-terminus assumed) | 8.0 (≈ 2.8 µM) | 63.84 | more than 62% | 8.0 (≈ 2.8 µM) | 4.0 (≈ 1.4 µM) | 2.0 (≈ 0.699 µM) | 64.04 | 16.0 (≈ 5.6 µM) | 8.0 (≈ 2.8 µM) | 128.07 | – | – | – | – | – | – | – | – | – | –
CC(C)C[C@H](NC(=O)[C@H](CS)NC(=O)[C@H](Cc1ccccc1)NC(=O)[C@@H](N)CCCCN)C(=O)N[C@@H](CCCCN)C(=O)N[C@@H](Cc1ccccc1)C(=O)N[C@@H](CS)C(=O)N[C@@H](Cc1ccccc1)C(=O)N[C@@H](CCCCN)C(=O)NCC(=O)N[C@@H](Cc1ccccc1)C(=O)N[C@@H](CS)C(=O)N[C@@H](Cc1ccccc1)C(=O)N[C@@H](CCCCN)C(=O)N[C@@H](C)C(=O)N[C@@H](CS)C(=O)NCC(=O)N[C@@H](CCCCN)C(=O)O [Peptide R11] (H-KFCLKFCFKGFCFKACGK-OH; N-terminus and C-terminus assumed) | – | – | – | – | – | 0.3 (≈ 0.142 µM) | 356.7 | – | – | – | below 2% | 2.85–7.03% | 0.9 | 3900 | 6.7 | 1.7 | 6.7 | 1.7 | – | –
CC[C@H](C)[C@H](N)C(=O)N[C@@H](C)C(=O)N[C@@H](CCCCN)C(=O)N[C@@H](CCCCN)C(=O)N[C@@H](Cc1ccccc1)C(=O)N[C@@H](Cc1c[nH]c2ccccc12)C(=O)N[C@@H](CCCCN)C(=O)N[C@@H](CCCCN)C(=O)N[C@@H](Cc1ccccc1)C(=O)N[C@@H](Cc1c[nH]c2ccccc12)C(=O)N[C@@H](CCCCN)C(=O)N[C@@H](Cc1ccccc1)C(=O)N[C@@H](Cc1c[nH]c2ccccc12)C(=O)N[C@@H](CCCCN)C(=O)N[C@H](C(=O)N[C@@H](Cc1ccccc1)C(=O)N[C@@H](CCCCN)C(=O)N[C@@H](CCCCN)C(=O)N[C@H](C(=O)N[C@@H](C)C(=O)O)[C@@H](C)CC)[C@@H](C)CC [Peptide R12] (H-IAKKFWKKFWKFWKIFKKIA-OH) | 8.0 (≈ 2.99 µM) | 16.18 | – | 8.0 (≈ 2.99 µM) | 31.0 (≈ 11.6 µM) | 0.5 (≈ 0.187 µM) | 32.0 | 16.0 (≈ 5.99 µM) | 4.0 (≈ 1.5 µM) | – | – | – | 2.0 | – | 2.0 | 0.5 | 1.0 | 4.0 | – | –
CC[C@H](C)[C@H](N)C(=O)N[C@@H](C)C(=O)N[C@@H](CCCCN)C(=O)N[C@@H](CCCCN)C(=O)N[C@@H](Cc1ccccc1)C(=O)N[C@@H](Cc1c[nH]c2ccccc12)C(=O)N1CCC[C@H]1C(=O)N[C@@H](CCCCN)C(=O)N[C@@H](Cc1ccccc1)C(=O)N[C@@H](Cc1c[nH]c2ccccc12)C(=O)N[C@@H](CCCCN)C(=O)N[C@@H](Cc1ccccc1)C(=O)N[C@@H](Cc1c[nH]c2ccccc12)C(=O)N[C@@H](CCCCN)C(=O)N[C@H](C(=O)N[C@@H](Cc1ccccc1)C(=O)N[C@@H](CCCCN)C(=O)N[C@@H](CCCCN)C(=O)N[C@H](C(=O)N[C@@H](C)C(=O)O)[C@@H](C)CC)[C@@H](C)CC [Peptide R13] (H-IAKKFWPKFWKFWKIFKKIA-OH) | – | 79.37 | – | 4.0 (≈ 1.51 µM) | 8.0 (≈ 3.03 µM) | 0.3 (≈ 0.114 µM) | 263.3 | 16.0 (≈ 6.06 µM) | 4.0 (≈ 1.51 µM) | – | – | – | 19.8 | – | 19.8 | 9.9 | 4.9 | 19.8 | – | –
CC[C@H](C)[C@H](NC(=O)[C@H](CCCCN)NC(=O)[C@@H](N)CCCCN)C(=O)N[C@@H](C)C(=O)N[C@@H](CCCCN)C(=O)N[C@@H](CCCCN)C(=O)N[C@@H](Cc1ccccc1)C(=O)N[C@@H](Cc1c[nH]c2ccccc12)C(=O)N[C@@H](CCCCN)C(=O)N[C@@H](CCCCN)C(=O)N[C@@H](Cc1ccccc1)C(=O)N[C@@H](Cc1c[nH]c2ccccc12)C(=O)N[C@@H](CCCCN)C(=O)N[C@@H](Cc1ccccc1)C(=O)N[C@@H](Cc1c[nH]c2ccccc12)C(=O)N1CCC[C@H]1C(=O)N[C@@H](CCCCN)C(=O)N[C@@H](Cc1ccccc1)C(=O)N[C@@H](Cc1c[nH]c2ccccc12)C(=O)N[C@@H](CCCCN)C(=O)N[C@H](C(=O)N[C@@H](Cc1ccccc1)C(=O)N[C@@H](CCCCN)C(=O)N[C@@H](CCCCN)C(=O)O)[C@@H](C)CC [Peptide R14] (H-KKIAKKFWKKFWKFWPKFWKIFKK-OH) | 16.0 (≈ 4.84 µM) | 21.07 | – | 8.0 (≈ 2.42 µM) | 4.0 (≈ 1.21 µM) | 1.0 (≈ 0.303 µM) | – | 8.0 (≈ 2.42 µM) | 4.0 (≈ 1.21 µM) | – | – | – | 2.2 | – | 4.4 | 8.8 | 4.4 | 8.8 | strong hemolytic activity | > 5

Reference: paper PMC10044245, “Comparative Evaluation of Existing and Rationally Designed Novel Antimicrobial Peptides for Treatment of Skin and Soft Tissue Infections” (Antibiotics, 2023)
